Experimental data published in US20030045564A1, “Saururus chinensis extract for prevention and treatment of neurodegenerative disease” (priority 2000, published 2003).

Key:
[1] = system: glutamate-insulted rat cortical cells; conditions: previously patented neuroprotectant, comparison; cited from earlier work
[2] = system: NO content released from glutamate-insulted rat cortical cells; test: Measurement of nitric oxide (nitrite in culture broth, Griess reagent); format: cell-based; conditions: for Nitrite / Nitrite post-treatment: post-treatment; for Nitrite: control 75.5, glutamate-treated 145.7; for Nitrite post-treatment / Nitrite pre-treatment: control 70.5, glutamate-treated 165.9
Description: The content of nitrite isolated into culture broth from first cultured cortical cells was assayed by using Griess reagent by Dawson's method(Dawson V L, Brahbhatt H P, Mong J A and Dawson T M (1994) Expression of inducible nitric oxide synthase causes delayed neurotoxicity in primary neuronal-glial cortical cultures. Neuropharmacology 33: 1425-1430).

[3] = system: glutamate-insulted rat cortical cells; test: Neuroprotection against glutamate-induced neurotoxicity, cell viability by MTT assay in primary cultured cortical cells; format: cell-based; set-up: neuroprotective activity (in words): dose or concentration left out as unconfirmed
Description: Primary cultures of mixed cortical cells containing both neuron and glia were prepared from fetal rats as described previously (Kim Y C, Kim S R, Markelonis G J and Oh T H (1998) Ginsenosides Rb1 and Rg3 protect cultured rat cortical cells from glutamate-induced neurodegeneration. J. Neurosci. Res. 53: 426-432).
The cortical cells were plated onto collagen-coated dishes at a density of 1×10^6 cells/ml. The cultured cells were grown in DMEM supplemented with 10% heat-inactivated fetal calf serum, 1 mM sodium pyruvate, 100 IU/ml pecicillin and 100 μg/ml streptomycin at 37° C. in a humidified atmosphere of 95% air/5% CO2. cultures were allowed to mature for 2 weeks before being used for experiments.
Total extract of S. chinensis, fraction and isolated materials were dissolved in DMSO(within final culture concentration, 0.1%) and diluted with distilled water and by passing the solution through Milliporemembrane(0.22 μm, Millex-GV, USA) to make sterile state. The solution was cultured by differentiating the concentration and dosed to neuron cells.
To culture broth of the cortical cells during being cultured, MTT(5 mg/ml) was added by 10% of the culture broth. The broth was cultured for more 3 hours. The formed formazan was dissolved by DMSO and was assayed absorption at 540 nm((Mosmann T (1983) Rapid colorimetric assay for cellular growth and survival: Application to proliferation and cytotoxicity assays. J. Immuno. Methods 65: 55-61)
The neuroprotective activity of these two aristolactam alkaloids against glutamate-induced toxicity was initially evaluated by a timed exposure to alkaloids before or after excitotoxic challenge. Some cultures were pretreated with alkaloids for one hr before a brief exposure (30 min) to glutamate, washed and maintained in DMEM for 24 hr in the absence of alkaloids (pre-treatment) (Table 3). Also, cultures were first exposed to glutamate for 30 min, washed and maintained in DMEM for 24 hr in the presence of alkaloids (post-treatment) (Table 4).
Cortical cells directly isolated from rat fetal were cultured for 14 days. The samples to be tested were treated at different concentrations to cultured cells. After one hour, neurotoxicity was induced by treating 100 μM of glutamate. After 24 hours, the survival cell rate were measured by MTT assay to determine neuroprotective activity of the samples.
Control is the value for primary cultures of rat cortical cells. Control value for MTT was 1.03±0.08 optical density (OD). Glutamate-treated is the value for primary cultures of rat cortical cells exposed to glutamate for 30 min. Glutamate-treated value for MTT was 0.58±0.02 OD.
Viability is calculated as 100×(OD of sample treated−OD of Glutamate-treated)/(OD of control−OD of Glutamate-treated).

catalase = test: Effect on activity of antioxidant enzyme catalase; format: cell-based, rat; conditions: data not shown
SOD = test: Effect on activity of antioxidant enzyme SOD; format: cell-based, rat; conditions: data not shown
GSH-px = test: Effect on activity of antioxidant enzyme GSH-px; format: cell-based, rat; conditions: data not shown
[4] = system: [Ca2+]i in glutamate-insulted rat cortical cells; test: Measurement of Ca2+ concentration in cells (Fura-2 AM); format: cell-based; conditions: for [Ca2+]i: pre-treatment, control 75.5, glutamate-treated 425.4
[5] = system: peroxide content on glutamate-insulted rat cortical cells; test: Cellular peroxide content in glutamate-injured cortical neurons; format: cell-based
[6] = both pre- and post-treatment paradigms

## COc1ccc(/C=C/C(=O)O)cc1 [E-p-MCA, (E)-p-methoxycinnamic acid]
[1]
  protective activity by treatment paradigm (in words): significant protective activity only in pre-treatment paradigm

## N=C(NCCC[C@H](N)C(=O)O)N[N+](=O)[O-] [N^ω-nitro-L-arginine, reference compound]
[2]; 1.0 μM
  Nitrite: 103.9 ± 3.5 nM
[2]; 10.0 μM
  Nitrite: 88.5 ± 4.1 nM
[2]; 100.0 μM
  Nitrite: 109.7 ± 1.9 nM

## COc1cc2c3c(cc4ccccc4c3c1OC)NC2=O [aristolactam BII, 10-amino-3,4-methoxy-3-hydroxy-phenanthrene-1-carboxylic acid lactam]
[3]; post-treatment (right after 30 min glutamate insult), 0.1 μM
  Neuroprotection (% protection against glutamate-induced neurotoxicity): 58.5 ± 5.8 %
[3]; post-treatment (right after 30 min glutamate insult), 1.0 μM
  Neuroprotection (% protection against glutamate-induced neurotoxicity): 68.4 ± 3.5 %
[3]; post-treatment (right after 30 min glutamate insult), 10.0 μM
  Neuroprotection (% protection against glutamate-induced neurotoxicity): 47.8 ± 2.9 %
[3]; pre-treatment (1 hr prior to glutamate insult), 0.1 μM
  Neuroprotection (% protection against glutamate-induced neurotoxicity): 0.0 ± 7.8%
[3]; pre-treatment (1 hr prior to glutamate insult), 1.0 μM
  Neuroprotection (% protection against glutamate-induced neurotoxicity): 0.0 ± 3.2%
[3]; pre-treatment (1 hr prior to glutamate insult), 10.0 μM
  Neuroprotection (% protection against glutamate-induced neurotoxicity): 32.2 ± 0.8 %
[3]; pre-treatment paradigm
  protection from glutamate-induced neurotoxicity (in words): did not significantly protect
[3]; throughout treatment paradigm
  neuroprotective activity (in words): significant neuroprotective activity
[3]; throughout treatment, 0.1 μM
  Neuroprotection (% protection against glutamate-induced neurotoxicity): no effect
[3]; throughout treatment, 1.0 μM
  Neuroprotection (% protection against glutamate-induced neurotoxicity): 60.8 ± 2.1 %
[3]; throughout treatment, 10.0 μM
  Neuroprotection (% protection against glutamate-induced neurotoxicity): 52.2 ± 3.2 %
[2]; 0.1 μM
  Nitrite: 87.0 ± 0.8 nM
[2]; 1.0 μM
  Nitrite: 86.8 ± 2.2 nM
[2]; 10.0 μM
  Nitrite: 103.2 ± 1.2 nM
[2]; versus glutamate alone
  NO content in cultures treated with glutamate plus compound (in words): increased only slightly
catalase
  protective effect on activity of catalase (in words): no significant protective effects
SOD
  protective effect on activity of SOD (in words): no significant protective effects
GSH-px
  protective effect on activity of GSH-px (in words): no significant protective effects

## saurolactam-3-O-(E)-p-methoxycinnamate
[3]; Table 6, pre-treatment, 0.1 μM
  Neuroprotection (% protection against glutamate-induced neurotoxicity): 29.8 ± 8.2 %
[3]; Table 6, pre-treatment, 1.0 μM
  Neuroprotection (% protection against glutamate-induced neurotoxicity): 67.2 ± 9.6 %
[3]; Table 6, pre-treatment, 10.0 μM
  Neuroprotection (% protection against glutamate-induced neurotoxicity): 80.6 ± 9.5 %
[3]; Table 7, post-treatment, 0.1 μM
  Neuroprotection (% protection against glutamate-induced neurotoxicity): 62.1 ± 1.8 %
[3]; Table 7, post-treatment, 1.0 μM
  Neuroprotection (% protection against glutamate-induced neurotoxicity): 70.3 ± 3.2 %
[3]; Table 7, post-treatment, 10.0 μM
  Neuroprotection (% protection against glutamate-induced neurotoxicity): 48.2 ± 1.5 %
[3]; [6]
  neuroprotective activity on glutamate-induced neurotoxicity (in words): significant neuroprotective activity
[2]; [6]
  block of NO synthesis (in words): significantly block
[2]; 0.1 μM
  Nitrite post-treatment: 143.6 ± 5.7 nM
  Nitrite pre-treatment: 125.0 ± 6.8 nM
[2]; 1.0 μM
  Nitrite post-treatment: 97.5 ± 26.3 nM
  Nitrite pre-treatment: 74.8 ± 6.5 nM
[2]; 10.0 μM
  Nitrite post-treatment: 118.1 ± 2.1 nM
  Nitrite pre-treatment: 71.4 ± 2.1 nM
[4]
  block of increase of intracellular Ca2+ induced by excess glutamate (in words): successfully block
[4]; 0.1 μM
  [Ca2+]i: 233.3 ± 14.9 nM
[4]; 1.0 μM
  [Ca2+]i: 145.8 ± 26.3 nM
[4]; 10.0 μM
  [Ca2+]i: 96.1 ± 4.1 nM
[5]
  cellular peroxide level (in words): reduced
